Among the data in US11053235B2, “Substituted 1,4-dihydropyrimidines for the treatment of HBV infection or HBV-induced diseases” (Janssen Sciences Ireland Unlimited Company, priority 2018, dated 2021) are EC50 and CC50 values, retold here.

Usually EC50 stands for the concentration at which the effect is half-maximal. Broadly, the CC50 is the concentration giving 50% cytotoxicity. A high value points to better tolerance by the cells.

Each structure is given as a SMILES string.

One data set has as its system HBV. Kind of data set: Anti-viral assay in HepG2.2.15 cells: HBV inhibitory activity (HBV DNA in culture medium by q-PCR). The class given is cell-based. The following applies: Hepatitis B virus, HepG2.2.15, 144 h, HepG2.2.15 cells, 6 days treatment, HBV DNA in culture medium by q-PCR, highest concentration 10 uM; read-out: EC50. In a few lines:
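HBV DNA released into the medium was measured by q-PCR after 6-day compound exposure of HepG2.2.15 cells (40,000/well, 2% FBS, one mid-course medium change). Eight 3-fold dilutions, highest 10 uM; EC50 derived by curve fitting.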

Data set [1] can be described thus: Cytotoxicity determination in HepG2.2.15 cells (CCK-8). The class given is cell-based. The following applies: human, 6 days treatment, CCK-8, highest concentration 100 uM. The method in brief:
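CC50 derived from CCK-8 absorbance (450 nm, 630 nm reference) after 2.5 h incubation at 37 °C. Before that, HepG2.2.15 cells (5,000/well, 2% FBS) received an 8-point, 3-fold compound series topping at 100 uM for 6 days, with one mid-treatment medium change.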

Regarding `COC(=O)C1=C(C2CCN(c3ncc(C(=O)O)cn3)CC2)NC(c2nccs2)=NC1c1ccc(F)cc1Cl` (single isomer, unassigned) [II-17-B, 2-(4-(6-(2-chloro-4-fluorophenyl)-5-(methoxycarbonyl)-2-(thiazol-2-yl)-3,6-dihydropyrimidin-4-yl)piperidin-1-yl)pyrimidine-5-carboxylic Acid], the EC50 in the data set on HBV is 14 nM. Further, the CC50 at 6 days in data set [1] was greater than 100000 nM.

On to `CCOC(=O)C1=C([C@H]2CC[C@H](c3nc(C(=O)O)cs3)CC2)NC(c2nccs2)=NC1c1ccc(F)c(F)c1Cl` (single isomer, unassigned) [Compound I-41-B, (trans)-2-(4-(6-(2-Chloro-3,4-difluorophenyl)-5-(ethoxycarbonyl)-2-(thiazol-2-yl)-3,6-dihydropyrimidin-4-yl)cyclohexyl)thiazole-4-carboxylic Acid], for which, in the data set with HBV, the EC50 is 17 nM. Also, in data set [1], half-maximal cytotoxicity (CC50 at 6 days) was put at 1020 nM.

As to `CCOC(=O)C1=C(C2CCN(c3nc(COC)c(C(=O)O)s3)CC2)NC(c2nccs2)=NC1c1ccc(F)c(F)c1Cl` (single isomer, unassigned) [II-77-B, 2-(4-(6-(2-Chloro-3,4-difluorophenyl)-5-(ethoxycarbonyl)-2-(thiazol-2-yl)-3,6-dihydropyrimidin-4-yl)piperidin-1-yl)-4-(methoxymethyl)thiazole-5-carboxylic Acid], the EC50 with HBV was 29 nM. For the same molecule, the CC50 at 6 days in data set [1] was 9740 nM.

On to `COC(=O)C1=C(C2CCN(c3ncc(OC)c(C(=O)O)n3)CC2)NC(c2nccs2)=NC1c1ccc(F)c(F)c1C` (single isomer, unassigned) [II-95-B, 2-(4-(6-(3,4-Difluoro-2-methylphenyl)-5-(methoxycarbonyl)-2-(thiazol-2-yl)-3,6-dihydropyrimidin-4-yl)piperidin-1-yl)-5-methoxypyrimidine-4-carboxylic Acid], for which the EC50 in the data set with HBV worked out at 8.6 nM. In data set [1], the CC50 at 6 days worked out at 25800 nM.

Consider `CCOC(=O)C1=C(C2CCN(c3cnc(C(=O)O)cn3)CC2)NC(c2nccs2)=NC1c1ccc(F)c(F)c1Cl` (single isomer, unassigned) [II-51-B, 5-(4-(6-(2-Chloro-3,4-difluorophenyl)-5-(ethoxycarbonyl)-2-(thiazol-2-yl)-3,6-dihydropyrimidin-4-yl)piperidin-1-yl)pyrazine-2-carboxylic Acid], for which the EC50 in the data set with HBV was less than 4.6 nM. The molecule further registered a half-maximal cytotoxic concentration (CC50) at 6 days in data set [1] of 670 nM.

For `CCOC(=O)C1=C([C@H]2CC[C@H](c3nc(CCC(=O)O)co3)CC2)NC(c2nccs2)=NC1c1ccc(F)c(F)c1Cl` (single isomer, unassigned) [Compound I-24-A, (trans)-3-(2-(4-(6-(2-Chloro-3,4-difluorophenyl)-5-(ethoxycarbonyl)-2-(thiazol-2-yl)-3,6-dihydropyrimidin-4-yl)cyclohexyl)oxazol-4-yl)propanoic Acid], in the data set on HBV, the EC50 is less than 4.6 nM. This molecule had a CC50 at 6 days in data set [1] of 6790 nM.

Take `CCOC(=O)C1=C([C@H]2CC[C@H](n3nccc3C(=O)O)CC2)NC(c2nccs2)=NC1c1ccc(F)c(F)c1Cl` (single isomer, unassigned) [Compound I-39-C, (trans)-1-(4-(6-(2-Chloro-3,4-difluorophenyl)-5-(ethoxycarbonyl)-2-(thiazol-2-yl)-3,6-dihydropyrimidin-4-yl)cyclohexyl)-1H-pyrazole-5-carboxylic Acid]: in the data set on HBV, the EC50 came out at 110 nM. The CC50 at 6 days in data set [1] is 7750 nM.

Consider `CCOC(=O)C1=C([C@H]2CC[C@H](c3cc(C(=O)O)n(C)n3)CC2)NC(c2nccs2)=NC1c1ccc(F)c(F)c1Cl` (single isomer, unassigned) [Compound I-36-B, (trans)-3-(4-(6-(2-Chloro-3,4-difluorophenyl)-5-(ethoxycarbonyl)-2-(thiazol-2-yl)-3,6-dihydropyrimidin-4-yl)cyclohexyl)-1-methyl-1H-pyrazole-5-carboxylic Acid], for which the EC50 in the data set on HBV is 6.2 nM. Moreover, in data set [1], it took 5940 nM to reach half-maximal cytotoxicity (CC50 at 6 days).

Consider `COC(=O)C1=C(C2CCN(c3ncc(CC(=O)O)c(C)n3)CC2)NC(c2nccs2)=NC1c1ccc(F)c(F)c1Cl` (single isomer, unassigned) [II-28-B, 2-(2-(4-(6-(2-Chloro-3,4-difluorophenyl)-5-(methoxycarbonyl)-2-(thiazol-2-yl)-3,6-dihydropyrimidin-4-yl)piperidin-1-yl)-4-methylpyrimidin-5-yl)acetic Acid], for which the EC50 in the data set with HBV was less than 4.6 nM. For the same molecule, the CC50 at 6 days in data set [1] is 5330 nM.

Turning to `CCOC(=O)C1=C([C@H]2CC[C@H](c3cc(C(=O)O)no3)CC2)NC(c2nccs2)=NC1c1ccc(F)c(F)c1Cl` (single isomer, unassigned) [Compound I-42-B, (trans)-5-(4-(6-(2-Chloro-3,4-difluorophenyl)-5-(ethoxycarbonyl)-2-(thiazol-2-yl)-3,6-dihydropyrimidin-4-yl)cyclohexyl)isoxazole-3-carboxylic Acid], the EC50 in the data set on HBV came out at 83 nM. In data set [1], this molecule came in with a CC50 at 6 days of 10800 nM.

For `CCOC(=O)C1=C(C2CCN(c3nc(C(=O)O)co3)C2)NC(c2nccs2)=NC1c1ccc(F)c(F)c1Cl` (single isomer, unassigned) [II-85-A, 2-(3-(6-(2-chloro-3,4-difluorophenyl)-5-(ethoxycarbonyl)-2-(thiazol-2-yl)-3,6-dihydropyrimidin-4-yl)pyrrolidin-1-yl)oxazole-4-carboxylic Acid], the EC50 in the data set on HBV was 720 nM. In data set [1], the midpoint of cytotoxicity, the CC50 at 6 days, lay at 4490 nM.

Regarding `CCOC(=O)C1=C(C2CCN(c3ncc(C(C)C)c(C(=O)O)n3)CC2)NC(c2nccs2)=NC1c1ccc(F)c(F)c1Cl` (single isomer, unassigned) [II-59-B, 2-(4-(6-(2-Chloro-3,4-difluorophenyl)-5-(ethoxycarbonyl)-2-(thiazol-2-yl)-3,6-dihydropyrimidin-4-yl)piperidin-1-yl)-5-isopropylpyrimidine-4-carboxylic Acid], in the data set with HBV, the EC50 was 13 nM. This molecule registered a CC50 at 6 days in data set [1] of 8650 nM.

`COC(=O)C1=C([C@H]2CC[C@H](c3nc(CC(=O)O)co3)CC2)NC(c2nccs2)=NC1c1cccc(F)c1Br` (single isomer, unassigned) [Compound I-19-B]: the EC50 in the data set with HBV is 36 nM. For the same molecule, the CC50 at 6 days in data set [1] stood at 15200 nM.

`COC(=O)C1=C(C2CCN(c3ncc(C)c(C(=O)O)n3)CC2)NC(c2nccs2)=NC1c1cccc(F)c1Cl` (single isomer, unassigned) [II-8-B, 2-(4-(6-(2-Chloro-3-fluorophenyl)-5-(methoxycarbonyl)-2-(thiazol-2-yl)-3,6-dihydropyrimidin-4-yl)piperidin-1-yl)-5-methylpyrimidine-4-carboxylic Acid]: the EC50 in the data set with HBV came out at 8.1 nM. In data set [1], this molecule had a CC50 at 6 days of 19000 nM.

Turning to `COC(=O)C1=C([C@H]2CC[C@H](c3nc(CC(=O)O)co3)CC2)NC(c2nccs2)=NC1c1ccc(F)cc1Br` (single isomer, unassigned) [Compound I-18-A, (trans)-2-(2-(4-(6-(2-Bromo-4-fluorophenyl)-5-(methoxycarbonyl)-2-(thiazol-2-yl)-3,6-dihydropyrimidin-4-yl)cyclohexyl)oxazol-4-yl)acetic Acid], the concentration for a half-maximal effect (EC50) in the data set with HBV was 7 nM. The molecule further had a CC50 at 6 days in data set [1] of 15300 nM.

With `CCOC(=O)C1=C(C2CCN(c3cc(O)c(C(=O)O)cn3)CC2)NC(c2nccs2)=NC1c1ccc(F)c(F)c1Cl` (single isomer, unassigned) [II-36-B, 6-(4-(6-(2-chloro-3,4-difluorophenyl)-5-(ethoxycarbonyl)-2-(thiazol-2-yl)-3,6-dihydropyrimidin-4-yl)piperidin-1-yl)-4-hydroxynicotinic Acid], in the data set with HBV, the EC50 came out at 52 nM. Also, it took 8650 nM to reach half-maximal cytotoxicity in data set [1] (CC50 at 6 days).

With `CCOC(=O)C1=C(C2CCN(c3nc(C(=O)O)cs3)CC2)NC(c2nccs2)=NC1c1ccc(F)c(F)c1Cl` (single isomer, unassigned) [II-80-B, 2-(4-(6-(2-Chloro-3,4-difluorophenyl)-5-(ethoxycarbonyl)-2-(thiazol-2-yl)-3,6-dihydropyrimidin-4-yl)piperidin-1-yl)thiazole-4-carboxylic Acid], the EC50 in the data set with HBV worked out at 45 nM. This molecule also displayed a CC50 at 6 days in data set [1] of 10200 nM.

On to `COC(=O)C1=C([C@H]2CC[C@H](c3nc(C(=O)O)co3)CC2)NC(c2ncc(F)cc2F)=NC1c1ccc(F)c(F)c1Cl` (single isomer, unassigned) [Compound I-7-B, (trans)-2-(4-(6-(2-chloro-3,4-difluorophenyl)-2-(3,5-difluoropyridin-2-yl)-5-(methoxycarbonyl)-3,6-dihydropyrimidin-4-yl)cyclohexyl)oxazole-4-carboxylic acid], for which, in the data set with HBV, the EC50 stood at 24 nM. For the same molecule, the CC50 at 6 days in data set [1] worked out at 14300 nM.

As for `COC(=O)C1=C(C2CCN(c3ncc(C(=O)O)s3)CC2)NC(c2nccs2)=NC1c1cccc(F)c1Br` (single isomer, unassigned) [II-83-B, 2-(4-(6-(2-Bromo-3-fluorophenyl)-5-(methoxycarbonyl)-2-(thiazol-2-yl)-3,6-dihydropyrimidin-4-yl)piperidin-1-yl)thiazole-5-carboxylic Acid], in the data set with HBV, the EC50 came to 16 nM. Also, the midpoint of cytotoxicity in data set [1], the CC50 at 6 days, lay at 2840 nM.

For the molecule `COC(=O)C1=C([C@H]2CC[C@H](c3cnn(CCC(=O)O)c3)CC2)NC(c2nccs2)=NC1c1ccc(F)cc1Cl` (single isomer, unassigned) [Compound I-29-C, (trans)-3-(4-(4-(6-(2-Chloro-4-fluorophenyl)-5-(methoxycarbonyl)-2-(thiazol-2-yl)-3,6-dihydropyrimidin-4-yl)cyclohexyl)-1H-pyrazol-1-yl)propanoic Acid], in the data set with HBV, the EC50 worked out at 10 nM. Also, the CC50 at 6 days in data set [1] was found to be 11200 nM.
